# Experimental data from the METLIN SMRT retention time set (Domingo-Almenara et al. 2019).
# Assay: gradient 5% acetonitrile 3 min, to 50% in 2 min, to 85% in 15 min, held 3 min, 100 µL/min
# Conditions: column: Zorbax Extend-C18 2.1 x 50 mm; eluents: water / acetonitrile, 0.1% formic acid
# Procedure, shortened: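 Retention time was recorded from adduct peaks, which were picked computationally and each inspected manually. Pure standards ran in mixtures of ~100 molecules on HPLC coupled to a quadrupole time-of-flight mass spectrometer, in positive and negative ionization mode, through a Zorbax Extend-C18 column (2.1 × 50 mm, 1.8 μm) at 100 μL/min. Eluents were water and acetonitrile, each with 0.1% formic acid.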
row,SMILES,RP-LC retention time
1,COC(=O)c1cccc(NC(=O)c2sc3ncccc3c2-n2cccc2)c1,1040 s
2,COCCC(=O)Nc1cnc(-c2ccc(C(F)(F)F)cc2)nc1,895 s
3,CCCN(CCc1ccccc1)C1CCc2c(O)cccc2C1 (stereo not given),768 s
4,Cc1ccc(-c2nnc(SCC(=O)N3CCC(C)CC3)o2)cc1,986 s
5,COc1ccc(C(C)NC(=O)c2nnc(-c3ccc(S(=O)(=O)N(C)C)cc3)o2)cc1 (stereo not given),893 s
6,Cc1cc(C(=O)Nc2c(F)cc(F)cc2Br)n(-c2ccccc2)n1,884 s
7,Cc1cc(C(=O)NCC(C)C)c2cc(F)ccc2n1,698 s
8,Cn1cc2c3c(cccc31)CN(C(=O)c1ccccc1F)CC2,875 s
9,COc1ccc(-n2ccc(=O)c(-c3nc(-c4ccc5c(c4)OCO5)no3)n2)cc1,855 s
10,CC(Cc1ccco1)NC(=O)C1CCN(S(C)(=O)=O)CC1 (stereo not given),632 s
11,O=C(NCc1ccco1)c1c(-c2ccccc2)nnc2ccccc12,756 s
12,CCOC(=O)c1cc([N+](=O)[O-])sc1NC(=O)CC,915 s
13,CCCc1nc2ccc(CCC(=O)NCc3ccc(F)cc3)cc2[nH]1,624 s
14,COc1ccc(Cl)cc1NC(=O)CSc1nc(-c2ccccc2C)ns1,1230 s
15,COc1cccc(OCC2c3ccsc3CCN2C(=O)CN(CC2CCCO2)C(C)=O)c1 (stereo not given),788 s
16,Cn1cnc(S(=O)(=O)N2CCC(Cc3nncn3Cc3ccccc3)CC2)c1,618 s
17,Cc1ccccc1-c1nc2ccccc2n1CC(N)=O,616 s
18,Cc1ccc(C)c(NC(=O)N2CCN(CCn3cnc4cccnc43)CC2)c1,596 s
19,COCc1cc(=O)n(CC(=O)Nc2cccc(C)c2C)c(N)n1,602 s
20,CCN1C(=O)Cc2ccccc2C1C(=O)N(C)Cc1ccco1 (stereo not given),732 s
21,CC(=O)c1cccc(NC(=O)CN2C(=O)NC3(CCC(C)CC3)C2=O)c1 (stereo not given),746 s
22,CC1=C(c2ccccc2)S(=O)(=O)N=C1N1CCCN(C(=O)Nc2cccc(F)c2)CC1,849 s
23,Fc1ccc(-c2nc(-c3ccc(-n4cccn4)nc3)no2)cc1F,1070 s

row,SMILES,RP-LC retention time
1,Cc1noc(C2CCCCCN2C(=O)NC(C)C)n1 (stereo not given),708 s
2,CCCC(=O)Nc1nc2ccc(CCC(=O)N3CCN(c4ccccn4)CC3)cc2s1,603 s
3,CSc1nc2nc3c(cn2n1)C(=O)CC(C)C3 (stereo not given),705 s
4,Cc1ccc(-n2cc(C(=O)O)nn2)c(F)c1,705 s
5,Cc1cc(F)ccc1NC(=O)Cn1nc2cc(-c3ccccc3)nc(C)n2c1=O,909 s
6,COc1ccc(NC(=O)CSc2nccnc2-n2nc(C)cc2C)cc1OC,702 s
7,O=C(Cc1cccs1)NC1CCc2nnc(C3CC3)n2CC1 (stereo not given),598 s
8,Cc1ccc(NS(=O)(=O)c2cc(-c3[nH]ncc3C(=O)N3CCCC3)oc2C)cc1Cl,803 s
9,Cc1cc(C)n(CCC(=O)N2C[C@H]3C[C@H](C2)[C@H]2CCCC(=O)N2C3)n1,600 s
10,COCCCn1c(=O)c2ccccc2n(Cc2nc(-c3ccccc3Cl)no2)c1=O,1140 s
11,COc1ccc2c(c1)C1(CCN(C(=O)Cc3ccccc3Cl)C1)C(=O)N2C (stereo not given),848 s
12,Cc1nc(N)n(CC(=O)N2CCc3ccccc32)c(=O)c1C,616 s
13,O=C(CN1C(=O)NC2(CCCCC2)C1=O)Nc1ccc(Cl)cc1F,809 s
14,CCC(=O)N1CC(=O)Nc2ccc(Br)cc2C1c1ccccc1 (stereo not given),749 s
15,Cc1ccc(-c2nc3cnccn3c2NCCC(=O)NCc2ccc(C)o2)cc1,710 s
16,Cc1ccc(CN2CCC(CNS(=O)(=O)c3ccc4c(c3)CCCC(=O)N4)C2)cc1 (stereo not given),625 s
17,COc1cccc(Cn2cnc3c(-c4ccc(OC)c(OC)c4)csc3c2=O)c1,947 s
18,Cc1ccc(-c2csc(-n3nc(C)c(CC(=O)Nc4c(C)cccc4C)c3C)n2)cc1,1190 s
19,Cc1cc(S(=O)(=O)N2CC=C(c3cn(C)c4ncccc34)CC2)ccc1F,1050 s
20,CC12CCC(C1)C(C)(C)C2OC(=O)c1ccccc1C(=O)O (stereo not given),1130 s
21,COc1ccc(OC)c(-c2cn3ccn(-c4ccc(F)c(Cl)c4)c(=O)c3n2)c1,929 s
22,Cc1ccn2c(NC(=O)c3ccc(Cl)c([N+](=O)[O-])c3)c(-c3ccccc3)nc2c1,700 s
23,O=C(NCc1ccccc1)c1ccc(-c2cncnc2)nc1,675 s

row,SMILES,RP-LC retention time
1,CCc1nc2cc(-c3noc(-c4ccc(C)s4)n3)ccc2o1,1200 s
2,O=C(C1CC(=O)N(c2n[nH]c3cccc(F)c23)C1)N1CCN(Cc2ccccc2)CC1 (stereo not given),598 s
3,CCc1cccc(C)c1N(C(=O)CSCc1nc2ccccc2[nH]1)C(C)COC (stereo not given),635 s
4,Cc1cccn2cc(-c3cccc(NS(=O)(=O)c4ccc(C(C)(C)C)cc4)c3)nc12,792 s
5,Cc1nc(-c2ccc(N3CCN(C(=O)c4cc(Cl)ccc4F)CC3)nc2)sc1C,990 s
6,CCc1ccccc1N1C[C@@]23C=C[C@@H](O2)[C@H](C(=O)OC)[C@@H]3C1=O,730 s
7,O=C(NC1CC1)[C@@H]1C[C@H](Oc2ccccc2)CN1C(=O)C1CC1,684 s
8,COc1ccc(CSc2ncnc3nc[nH]c23)cc1,654 s
9,Cc1cc(C)c(S(=O)(=O)N2CCCCC2C(=O)N2CCN(c3ccccc3F)CC2)c(C)c1 (stereo not given),1250 s
10,COc1ccc(-c2cn3c(CC(=O)Nc4cccc(C(F)(F)F)c4)csc3n2)cc1OC,841 s
11,CCCn1c(-c2cccc(C(=O)NCC3CCCCC3)c2)nc2cccnc21,904 s
12,Cc1ccc(CN2CCN(C(=O)c3cccc4[nH]cc(CN5CCSCC5)c34)CC2)cc1,593 s
13,O=C(Nc1ccccc1)Nc1ccccc1,767 s
14,CCCN(CC1CC1)C(=O)[C@@H]1[C@H](c2cc(OC)c(OC)c(OC)c2)c2cc3c(cc2[C@H](O)[C@H]1CO)OCO3,740 s
15,Cc1ccc(C)c(S(=O)(=O)Nc2cnc(N3CCNCC3)c(C(=O)NC3CCCC3)c2)c1,621 s
16,O=C(NCc1csc(-c2cccs2)n1)C1CCN(S(=O)(=O)c2ccccc2)CC1,870 s
17,CCCN1C(=O)c2cc(S(=O)(=O)N3CCCC3)ccc2Oc2cccnc21,913 s
18,Cc1ccc(NC(=O)c2cn(-c3cc(-c4nc(C5CC5)no4)ccn3)cn2)c(C)c1,1090 s
19,COc1ccc(CCNC(=O)C2=C3CCCN3c3ccc(F)cc3S2(=O)=O)cc1OC,790 s
20,Cc1nnc([C@@H]2CC(F)(F)CN2C(=O)c2n[nH]c3ccccc23)o1,666 s
21,COc1cccc(NC(=O)Cn2ccc3ccc(-c4nnc(C)o4)cc32)c1,788 s
22,N#Cc1ccc(S(=O)(=O)N2CCCOCCNC(=O)[C@@H]3CCC[C@@H]32)cc1,714 s
23,CCc1noc(-c2ccnc(-n3cnc(C(=O)NC4CCCCC4)c3)c2)n1,915 s

row,SMILES,RP-LC retention time
1,Cc1cccc(NS(=O)(=O)c2ccc3c(c2)C(=O)N(C)c2ncccc2O3)c1C,970 s
2,Cc1ccc(NC(=O)Nc2ccccc2C(N)=O)cc1,815 s
3,CCCNC(=O)C1CCN(Cc2cc3ccccc3n2Cc2ccccc2Cl)CC1,736 s
4,O=C1CSc2ccc(S(=O)(=O)N3CCC(C(=O)NC4CC4)CC3)cc2N1,662 s
5,COc1ccccc1CCC(=O)N1CCC[C@@H]1C(=O)NCCc1csc(-c2ccccc2)n1,891 s
6,Cn1cc(S(=O)(=O)N2CCCCC2)cc1C(=O)Nc1cccc(F)c1,1020 s
7,CC(=O)Nc1onc(C)c1-c1ccc(C)c(S(=O)(=O)NCc2ccc(N(C)C)cc2)c1,1170 s
8,Cc1cccc2nnc(N3CCCC(C(=O)Nc4ccc(N5CCOCC5)cc4)C3)n12 (stereo not given),625 s
9,CCN1C(=O)c2cccnc2Sc2cc(NC(=O)COC)ccc21,655 s
10,Cc1sc(-c2ccn[nH]2)cc1NC(=O)c1cccc(N(C)C)c1,995 s
11,O=C(NCc1ccc(F)c(Cl)c1)c1sc2ncccc2c1-n1cccc1,1050 s
12,O=C(Nc1ccc(F)cc1F)Nc1c[nH]c2ccccc12,755 s
13,COCCN1C(=O)CCc2cc(NS(=O)(=O)c3ccc(OC)c(Cl)c3)ccc21,794 s
14,Cc1ccc(CNC(=O)C2CCCN2S(=O)(=O)c2cc3c(cc2C)NC(=O)CO3)cc1 (stereo not given),777 s
15,O=C(Cc1csc(NC(=O)c2ccsc2)n1)NCc1nc2ccccc2[nH]1,573 s
16,CCCn1c(=O)c2cc(C(=O)NCc3ccccc3C)nn2c2ccccc21,1010 s
17,CCCCCNC(=O)C1CCCN(S(=O)(=O)c2cc(Cl)ccc2OC)C1 (stereo not given),960 s
18,CC(=O)N(C)CCc1noc(-c2ccc(C(=O)NCCC(C)C)cc2)n1,733 s
19,CCN1CCCC1CNC(=O)Cn1c2ccccc2c2cnn(C)c(=O)c21 (stereo not given),554 s
20,CCOc1ccc(-c2cc3c(=O)n(Cc4nc(-c5ccc(OC(C)C)cc5)no4)ncn3n2)cc1,1260 s
21,COc1ccccc1-c1ccc(SCc2cccc(C)c2)nn1,1080 s
